The values below come from patent US20200024223A1, “CRYSTALLINE SALTS OF (4S,4AS,5AR,12AS)-4-DIMETHYLAMINO-3,10,12,12A-TETRAHYDROXY-7-[(METHOXY(METHYL)AMINO)-METHYL]-1,11-DIOXO-1,4,4A,5,5A,6,11,12A-OCTAHYDRO-NAPHTHACENE-2-CARBOXYLIC ACID AMIDE AND METHODS OF USING THE SAME” (priority 2011, published 2020).

Values after ≈ are worked out from the molar mass of the structure shown.

Data set [1] is described as follows: Storage stability by HPLC-UV (chemical purity, β-isomer content, total impurity content). Type of data set: physicochemical. As for the experimental part:
The lower the β-isomer content, the higher the chemical purity of the salt. The β-isomer content is measured after synthesis of the salt and compared with the measured β-isomer content after storage for a designated period of time.
Another measure of chemical purity is defined by the content of other related impurities, by-products or degradation products of the salt, which represents the […] of the compound. The lower the content of total impurities as measured by HPLC, generally, by HPLC-UV, the higher the chemical purity of the salt. The total impurity content is measured after synthesis of the salt and compared with the measured total impurity content after storage for a designated period of time.
In order to determine the stability of Crystalline Mono Hydrochloride Salt, the β-isomer content of the salt was determined by HPLC-UV analysis and compared to the β-isomer content calculated after the salt was stored in an amber glass vial for approximately 75 days at ambient conditions.
The β-isomer content of Comparative Example 2 was also determined by HPLC-UV analysis at 0 days and compared to the β-isomer content calculated after the compound was stored in a clear glass vial for approximately 75 days at ambient conditions.
HPLC-UV and XRPD analysis were conducted on samples of Crystalline Mono Hydrochloride Salt, Crystalline Mesylate Salt and Crystalline Sulfate Salt at 0 days and after storage for 7 days at 40° C. and 75% RH. FIGS. 1, 4 and 7 show the XRPD analysis of the Crystalline Mono Hydrochloride Salt, Crystalline Mesylate Salt and Crystalline Sulfate Salt at 0 days and after storage at 40° C. and 75% RH with the graphs overlaid for comparison.
The results of HPLC-UV analysis for the same samples of Crystalline Mesylate Salt and Crystalline Sulfate Salt are shown in Table 4.

Data set [2] is described as follows: Advantages and disadvantages of solid forms (hygroscopicity, milling/pressing, storage). Type of data set: physicochemical. An excerpt:
One measure of the stability of the physical form of the salt is hygroscopicity, which is the propensity of a substance to absorb or adsorb water molecules from the surrounding environment. Whenever moisture can promote degradation, the salt is stable if it is non-hygroscopic or mildly hygroscopic above 70% relative humidity (RH). In preferred embodiments, the salt is non-hygroscopic or mildly hygroscopic above 80% RH, and in more preferred embodiments, the salt is non-hygroscopic or mildly hygroscopic to 90% RH. “Non-hygroscopic or mildly hygroscopic” as used herein refers to a compound at about 40° C. and at an RH of about 75%, existing over about 80% w/w in solid crystalline form, preferably over about 90% w/w in solid crystalline form, that absorbs less than 10% w/w water, and preferably, less than 5% w/w water in 8 hours or less. Hygroscopicity (hygroscopic degree) is calculated based on increase in weight in a compound at comparative points of measurement. Another measure of physical stability is the crystal form of the salt, which may be measured by XPRD. The stability of Crystalline Mono Hydrochloride Salt was compared to the amorphous mono hydrochloride salt of Comparative Example 2.

Data set [3] relates to S. agalactiae. Description: In vitro MIC testing, antibacterial spectrum of activity. The format is cell-based.
In data set [4] the test system is E. coli. The description is as above. Type of data set: cell-based.
The mark [5] stands for this setting: HPLC-UV, 0 days (after synthesis).
Setting [6] is: HPLC-UV, stored in glass vial approximately 75 days at ambient conditions.

In the case of `CON(C)Cc1ccc(O)c2c1C[C@H]1C[C@H]3[C@H](N(C)C)C(O)=C(C(N)=O)C(=O)[C@@]3(O)C(O)=C1C2=O` [Comparative Example 2, (4S,4aS,5aR,12aS)-4-dimethylamino-3,10,12,12a-tetrahydroxy-7-[(methoxy(methyl)amino)-methyl]-1,11-dioxo-1,4,4a,5,5a,6,11,12a-octahydro-naphthacene-2-carboxylic acid amide], in data set [1] (setting [5]), the “Chemical Purity at 0 days” value worked out at 94.3% and the “β-isomer content at 0 days” value is reported as 4.4%. Further, in data set [1] (setting [6]), the “Chemical Purity at 75 days” value was 90.4% and the “β-isomer content at 75 days” value is on record as 7.8%. The “increase of β-isomer content after storage” value in data set [1] (storage for 75 days at ambient conditions vs 0 days) is given as “over 80%”. In addition, the glass transition result in data set [2] is listed as “High glass transition (166° C.)”. In data set [2] (63% RH), the “β-isomer content upon storage at 63% RH” value was “Increase in β-isomer content upon”. Moreover, the “Change in form (amorphous to crystalline)” value in data set [2] (above 75% RH) was “Change in form (from amorphous”. In addition, the “β-isomer content upon storage under ambient conditions” value in data set [2] (ambient conditions) is reported as “Increase in β-isomer content upon”. In addition, the “rate of β-isomer formation upon exposure to solvent” value in data set [2] (compared to Crystalline Mono Hydrochloride Salt) is listed as “Faster rate of β-isomer formation”. The “form or β-isomer content upon milling or pressing” value in data set [2] (milling or pressing) is on record as “Increase in β-isomer content upon”. Also, the Hygroscopicity entry in data set [2] (relative humidity (RH)) was “Hygroscopic above 70% RH”. Also, the “crystallization upon storage and heat/cool cycle” value in data set [2] (storage and heat/cool cycle) is given as “Stable to crystallization upon”.
With `CN(C)[C@@H]1C(O)=C(C(N)=O)C(=O)[C@@]2(O)C(O)=C3C(=O)c4c(O)cccc4[C@@](C)(O)[C@H]3C[C@@H]12` [Tetracycline, tetracycline], the “MIC Range” value was 16 to 64 µg/mL in data set [3] (S. agalactiae [tetR] (7 isolates)), 0.25-0.25 μg/mL in data set [3] (S. agalactiae [tetS] (3 isolates)) and 1 to 4 µg/mL in data set [4] (E. coli [tetS] (7 isolates)).
As a reminder, the MIC50 is an inhibitory concentration at the 50% level, which refers to growth in some studies and to a panel of isolates in others. For `CC(=O)OCC1=C(C(=O)O)N2C(=O)[C@@H](NC(=O)Cc3cccs3)[C@H]2SC1` [Cephalothin], the MIC50 in data set [4] (Escherichia coli, read-out: MIC50) was 32 µg/mL (≈ 80.7 µM).
